Laboratory results as given in ChEMBL document CHEMBL1765067, “Absolute configuration of (-)-gambogic acid, an antitumor agent” (2011).

What follows are compounds tested on HT-29 (assay: Anticancer activity aganist human HT-29 cells). Settings: read-out: ED50 (the source's name).
Format: functional

Row | SMILES | EC50 [nM]
1 | CC(C)=CCc1c2c(c(O)c3c1O[C@]14C(=C[C@@H]5C[C@H]1C(C)(C)O[C@@]4(C/C=C(/C)C(=O)O)C5=O)C3=O)C=CC(C)(C)O2 | 360
2 | CC(C)=CCC[C@]1(C)C=Cc2c(O)c3c(c(CC=C(C)C)c2O1)O[C@]12C(=C[C@@H]4C[C@H]1C(C)(C)O[C@@]2(C/C=C(/C)C(=O)O)C4=O)C3=O [GAMBOGIC ACID] | 480
3 | CC(=O)O[C@H]1C(=O)[C@@]2(C)[C@H]([C@H](OC(=O)c3ccccc3)[C@]3(O)C[C@H](OC(=O)[C@H](O)[C@@H](NC(=O)c4ccccc4)c4ccccc4)C(C)=C1C3(C)C)[C@]1(OC(C)=O)CO[C@@H]1C[C@@H]2O [PACLITAXEL] | 0.1
